Results taken from publication PMC5522529, “Mechanisms of Paradoxical Activation of AMPK by the Kinase Inhibitors SU6656 and Sorafenib” (Cell Chemical Biology, 2017).

What was measured:
[1] = target: T1, AMPK-α1 (WT) (Homo sapiens, UniProt Q13131); assay: AMPK activity of FLAG-tagged AMPK-α1 (WT) expressed in HEK293 cells; type: cell-based; conditions: for AMPK activity and Thr172 phosphorylation: WT FLAG-α1, A769662 300 μM, berberine 300 μM, phenformin 10 mM, troglitazone 100 μM, oligomycin 1 μM, SU6656 100 μM
T1 construct: we expressed FLAG-tagged full-length AMPK-α1 either as the WT or the AT mutant; expressed in transfected cells; host or cells: HEK293
Description: (§1) (B) Western blotting of the same preparations as in (A). […] (D) Allosteric activation of WT and mutant α1β1γ1 complexes by MT 63-78, curve fitting as for (C). […] (E) Allosteric activation of WT and mutant α1β1γ1 complexes by AMP. Data were fitted to the equation for activation/inactivation by AMP ([Gowans et al., 2013]). […] (F) Activation of WT and AA mutant by various AMPK activators in HEK293 cells. […] FLAG-tagged complexes were isolated by immunoprecipitation and AMPK activity determined (mean ± SEM, n = 2).
(§2) We next expressed the FLAG-tagged WT or AA mutant of AMPK-α1 by transient transfection in HEK293 cells, treated with various agents, and measured AMPK activity in anti-FLAG immunoprecipitates. In Figure 4F, the results are expressed as absolute activities and are accompanied by blots showing Thr172 phosphorylation.
The α1-KD was precipitated using anti-FLAG and endogenous AMPK complexes using anti-α1 antibody, and activity determined. […] (B) Western blots (n = 2) using the indicated antibodies; samples from experiment in (A). (C) DNAs encoding FLAG-tagged AMPK-α1 (WT or AT mutant) were expressed by transient transfection in HEK293 cells, the cells treated with increasing concentrations of SU6656 for 1 hr, AMPK complexes precipitated with anti-FLAG, and activity measured.

[2] = target: T2, AMPK-α1 AA mutant (Homo sapiens, UniProt Q13131, K40A/K42A); assay: AMPK activity of FLAG-tagged AMPK-α1 K40A/K42A (AA) mutant expressed in HEK293 cells; type: cell-based
T2 construct: Plasmid encoding full-length human AMPK-α1; expressed in transfected cells; host or cells: HEK293
Description: as §1, §2

[3] = test system: ACC; assay: ACC phosphorylation in HEK293 cells (western blot); type: cell-based, human; conditions: 1 hr
Procedure: Figure 1 SU6656 Activates AMPK but Not AMPK-Related Kinases (A) HEK293 cells were incubated with the indicated concentrations of SU6656 or berberine (300 μM) for 1 hr; total AMPK activity was assayed in immunoprecipitates (top; mean ± SEM, n = 4), and phosphorylation of AMPK (Thr172), ACC (Ser80), and Raptor (Ser792) analyzed by western blotting (bottom; n = 2). (B) HEK293 cells were incubated with 100 μM SU6656 (1 hr), AMPK complexes containing α1, α2, β1, and β2 immunoprecipitated using isoform-specific antibodies, and AMPK activity measured (mean ± SEM, n = 4). (C) HeLa cells stably expressing LKB1 ([Fogarty et al., 2010]) were incubated with 100 μM SU6656 for 1 hr, AMPK or individual ARKs immunoprecipitated, and kinase assays carried out (antibodies that distinguish MARK2/MARK3 were not available, so they were assayed together). Results are means ± SEM (n = 2). In all panels, asterisks indicate significant differences from controls without SU6656. *p < 0.05, **p < 0.01, ****p < 0.0001.
(B) WT or RG cells were treated as in (A) and nucleotides extracted for analysis (mean ± SD, n = 3). […] (E) (See also Figure S2) Time courses of cellular oxygen uptake before and after addition of the indicated concentrations of sorafenib (SO, μM), SU6656 (100 μM) or phenformin (PHEN, 10 mM) (mean ± SEM, n = 4). (F) Effect of various concentrations of sorafenib or phenformin (10 mM) on activation (top, mean ± SEM, n = 3) or phosphorylation (bottom) of AMPK in cells expressing wild-type AMPK-γ2 (WT) or the R531G mutant AMPK-γ2 (RG). In all panels, asterisks show significant differences from DMSO controls (ns, not significant). […]
Cells were incubated for 60 min and AMPK activity measured; results in the top panel are means ± SEM (n = 8), with significant differences from the DMSO control indicated (ns, not significant). […]
SDS-PAGE was performed using precast Bis-Tris 4–12% gradient polyacrylamide gels in the MOPS buffer system (ThermoFisher Scientific). […] Protein concentrations were determined by Coomassie Blue binding with bovine serum albumin as standard ([Bradford, 1976]). […]

T1 sequence (Q13131 whole entry): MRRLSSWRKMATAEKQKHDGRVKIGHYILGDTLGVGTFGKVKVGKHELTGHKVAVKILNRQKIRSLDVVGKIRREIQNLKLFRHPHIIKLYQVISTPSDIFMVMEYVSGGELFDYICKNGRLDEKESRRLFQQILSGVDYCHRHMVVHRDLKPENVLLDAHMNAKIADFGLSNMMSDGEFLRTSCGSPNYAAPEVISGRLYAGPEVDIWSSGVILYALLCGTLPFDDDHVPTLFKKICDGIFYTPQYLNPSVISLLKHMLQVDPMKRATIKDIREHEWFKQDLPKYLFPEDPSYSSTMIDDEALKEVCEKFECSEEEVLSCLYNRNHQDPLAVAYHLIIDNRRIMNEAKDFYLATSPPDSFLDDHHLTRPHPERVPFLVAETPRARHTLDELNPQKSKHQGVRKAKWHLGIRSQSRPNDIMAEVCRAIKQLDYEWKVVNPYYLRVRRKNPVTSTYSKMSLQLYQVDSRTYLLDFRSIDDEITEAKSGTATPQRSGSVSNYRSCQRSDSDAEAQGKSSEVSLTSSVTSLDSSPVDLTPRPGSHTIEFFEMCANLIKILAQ
T1 sequence (P54619 whole entry partner): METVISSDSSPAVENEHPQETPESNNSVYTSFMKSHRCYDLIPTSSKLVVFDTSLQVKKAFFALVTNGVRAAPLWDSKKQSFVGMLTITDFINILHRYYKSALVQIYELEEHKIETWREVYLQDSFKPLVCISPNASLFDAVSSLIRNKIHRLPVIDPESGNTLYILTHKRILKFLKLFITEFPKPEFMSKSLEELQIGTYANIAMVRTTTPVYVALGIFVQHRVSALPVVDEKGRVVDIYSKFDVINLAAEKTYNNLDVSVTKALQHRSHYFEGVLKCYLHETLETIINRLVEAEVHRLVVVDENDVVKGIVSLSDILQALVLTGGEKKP
T2 sequence (Q13131 whole entry K40A/K42A): as the sequence (Q13131 whole entry) above, with K40A, K42A counted along it
T2 sequence (P54619 whole entry partner): as the sequence (P54619 whole entry partner) above

Row | Compound | AMPK activity ([1]; WT FLAG-α1 (comparison with AT mutant), 1 hr) | increase in activity and Thr172 phosphorylation ([1]; WT FLAG-α1, 100 μM, relative to DMSO control) [fold] | AMPK activity and Thr172 phosphorylation ([1]; 1 hr) | increase in activity and Thr172 phosphorylation ([2]; AA mutant FLAG-α1, 100 μM, relative to DMSO control) [fold] | ACC phosphorylation [3] | effect of AA mutation on AMPK activation ([2]; AA mutant FLAG-α1, same concentrations, 1 hr)
1 | CN(C)S(=O)(=O)c1ccc2c(c1)/C(=C/c1cc3c([nH]1)CCCC3)C(=O)N2 [SU6656] | robustly activated | 3 | activated AMPK and caused Thr172 phosphorylation | 3 | increased phosphorylation | 
2 | COc1ccc2cc3[n+](cc2c1OC)CCc1cc2c(cc1-3)OCO2 [berberine] |  |  | activated AMPK and caused Thr172 phosphorylation |  |  | abolished
3 | CNC(=O)c1cc(Oc2ccc(NC(=O)Nc3ccc(Cl)c(C(F)(F)F)c3)cc2)ccn1 [sorafenib] |  |  |  |  | promoted Thr172 and ACC phosphorylation | 
